Measurements taken from publication PMC8379669 (Computational and Structural Biotechnology Journal, 2021).

Columns and labels:
BChE from equine serum = BChE from equine serum (Equus caballus, UniProt P81908); experiment: biochemical; assay type: biochemical; details: for IC50 values (mean ± SD) BChE: BChE from equine serum
[1] = biological target: AChE from Electrophorus electricus (electric eel) (Electrophorus electricus, UniProt O42275); experiment: In vitro AChE inhibition assay; assay type: biochemical
Chain of AChE from Electrophorus electricus (electric eel) (O42275 24-633): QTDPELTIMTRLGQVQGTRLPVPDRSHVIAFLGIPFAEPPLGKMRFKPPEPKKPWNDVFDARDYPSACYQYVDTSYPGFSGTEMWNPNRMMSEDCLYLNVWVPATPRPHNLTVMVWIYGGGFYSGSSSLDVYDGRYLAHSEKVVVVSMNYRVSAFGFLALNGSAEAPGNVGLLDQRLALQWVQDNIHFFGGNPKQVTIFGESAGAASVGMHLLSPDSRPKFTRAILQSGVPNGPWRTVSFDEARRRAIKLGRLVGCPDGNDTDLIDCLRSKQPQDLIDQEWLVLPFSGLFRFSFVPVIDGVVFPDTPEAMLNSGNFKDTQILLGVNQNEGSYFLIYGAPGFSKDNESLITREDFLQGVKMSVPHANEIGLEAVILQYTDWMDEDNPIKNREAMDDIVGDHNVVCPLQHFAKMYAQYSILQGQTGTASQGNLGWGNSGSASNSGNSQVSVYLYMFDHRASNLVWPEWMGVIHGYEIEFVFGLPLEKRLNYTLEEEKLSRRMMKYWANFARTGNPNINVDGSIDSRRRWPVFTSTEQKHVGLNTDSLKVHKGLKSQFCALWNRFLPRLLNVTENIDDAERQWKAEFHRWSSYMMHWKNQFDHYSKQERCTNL

[2] = biological target: GluN2B containing NMDAR (GluN1/GluN2B) in HEK-293 cells (Homo sapiens, UniProt Q05586+Q13224); experiment: Cell-based NMDAR activity assay; details: for category of NMDAR inhibitor: based on NMDAR IC50; for antagonism of NMDAR activity, in words: initial screening studies; for inhibition at 100 µM / inhibition at 50 µM: HEK293, read-out: inhibition of NMDAR activity; for number of punctate cells: 5 μM, with NMDAR agonists and Ca2+ (Fig. 2B)
Chain of GluN2B containing NMDAR (GluN1/GluN2B) in HEK-293 cells (Q13224 27-1484, species assumed, other chains not shown): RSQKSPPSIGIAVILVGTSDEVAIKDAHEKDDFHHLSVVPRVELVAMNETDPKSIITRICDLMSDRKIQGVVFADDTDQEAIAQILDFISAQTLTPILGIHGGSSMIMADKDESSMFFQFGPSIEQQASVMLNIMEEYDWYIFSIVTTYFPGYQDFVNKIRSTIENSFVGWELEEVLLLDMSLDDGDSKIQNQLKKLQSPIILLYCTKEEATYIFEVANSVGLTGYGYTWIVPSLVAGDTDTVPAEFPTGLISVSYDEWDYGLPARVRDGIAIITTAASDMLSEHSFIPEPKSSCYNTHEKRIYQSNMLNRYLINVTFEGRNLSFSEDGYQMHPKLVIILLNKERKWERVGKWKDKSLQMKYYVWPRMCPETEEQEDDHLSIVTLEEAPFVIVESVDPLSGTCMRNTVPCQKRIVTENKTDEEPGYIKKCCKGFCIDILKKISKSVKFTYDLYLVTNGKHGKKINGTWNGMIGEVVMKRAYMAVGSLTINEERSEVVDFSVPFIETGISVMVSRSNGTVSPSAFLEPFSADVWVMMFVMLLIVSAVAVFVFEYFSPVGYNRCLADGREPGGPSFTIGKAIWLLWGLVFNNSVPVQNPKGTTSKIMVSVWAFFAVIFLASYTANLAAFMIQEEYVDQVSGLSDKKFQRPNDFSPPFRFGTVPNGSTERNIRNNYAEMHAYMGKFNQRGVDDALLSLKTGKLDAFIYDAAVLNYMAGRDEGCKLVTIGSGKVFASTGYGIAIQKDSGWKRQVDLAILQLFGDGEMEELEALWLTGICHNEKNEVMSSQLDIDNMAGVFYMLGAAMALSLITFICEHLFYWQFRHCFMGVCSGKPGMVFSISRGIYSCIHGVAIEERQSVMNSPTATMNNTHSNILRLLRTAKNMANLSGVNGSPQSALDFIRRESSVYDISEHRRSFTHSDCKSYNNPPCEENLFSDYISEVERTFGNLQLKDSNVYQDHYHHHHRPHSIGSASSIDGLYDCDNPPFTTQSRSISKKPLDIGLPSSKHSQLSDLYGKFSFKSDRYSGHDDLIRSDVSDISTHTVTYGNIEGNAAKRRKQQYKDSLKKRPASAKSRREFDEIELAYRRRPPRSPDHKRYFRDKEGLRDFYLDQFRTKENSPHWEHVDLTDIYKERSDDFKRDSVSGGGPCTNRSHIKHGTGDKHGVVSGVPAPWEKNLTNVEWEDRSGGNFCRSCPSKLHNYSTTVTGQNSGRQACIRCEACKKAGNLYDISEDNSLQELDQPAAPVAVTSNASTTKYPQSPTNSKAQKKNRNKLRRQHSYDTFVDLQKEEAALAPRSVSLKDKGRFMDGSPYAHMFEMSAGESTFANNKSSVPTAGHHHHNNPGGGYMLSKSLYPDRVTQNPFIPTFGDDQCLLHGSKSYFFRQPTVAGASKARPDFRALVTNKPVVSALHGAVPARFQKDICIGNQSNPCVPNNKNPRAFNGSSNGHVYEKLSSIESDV

HepG2 cells = experiment: MTT cytotoxicity assay on HepG2 cells; details: 24 h; for cytotoxicity on HepG2 cells, in words: 10-300 μM
[3] = test system: rat primary cortical neurons; experiment: Glutamate-induced excitotoxicity, MAP2 immunostaining and DAPI staining; assay type: cell-based; details: DIV9 neurons, 100 µM glutamate and 10 µM glycine
[4] = test system: MSG induced cognitive impairment in rats; experiment: Morris water maze test in MSG treated rats; assay type: in vivo; details: rat, IP, 3 mg/Kg body weight with MSG 4 g/Kg; vs MSG alone
rat liver = experiment: In vivo hepatotoxicity assessment by liver histopathology; details: IP, 15 days; for liver histopathology (H&E), in words: 201 3 mg/Kg, 208 1 mg/Kg, tacrine 5 mg/Kg
[5] = test system: rat primary cortical neurons; experiment: Glutamate-induced excitotoxicity, MTT assay; assay type: cell-based; details: DIV9 neurons, glutamate 3 h, MTT after 24 h; pre-treatment with compounds
AChE = details: read-out: IC50 (AChEI); cited from earlier work
NMDAR = details: read-out: IC50 NMDAR, reported value; cited from earlier work

Chain of BChE from equine serum (P81908 whole entry): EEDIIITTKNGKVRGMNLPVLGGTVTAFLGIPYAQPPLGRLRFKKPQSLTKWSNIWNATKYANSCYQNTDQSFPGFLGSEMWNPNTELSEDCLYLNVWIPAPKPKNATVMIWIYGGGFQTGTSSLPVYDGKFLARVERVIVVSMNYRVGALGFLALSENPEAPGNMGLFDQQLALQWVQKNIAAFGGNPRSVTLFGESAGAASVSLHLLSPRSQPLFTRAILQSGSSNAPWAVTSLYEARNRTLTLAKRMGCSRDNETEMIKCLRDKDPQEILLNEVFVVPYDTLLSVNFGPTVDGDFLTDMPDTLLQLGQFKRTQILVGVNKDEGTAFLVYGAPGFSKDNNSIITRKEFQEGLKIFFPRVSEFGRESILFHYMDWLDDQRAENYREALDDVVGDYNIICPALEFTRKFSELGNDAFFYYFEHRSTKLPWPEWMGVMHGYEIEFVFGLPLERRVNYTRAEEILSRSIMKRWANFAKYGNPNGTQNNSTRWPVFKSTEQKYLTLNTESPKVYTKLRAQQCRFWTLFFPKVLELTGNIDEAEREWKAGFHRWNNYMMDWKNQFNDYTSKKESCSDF

Row | Structure (SMILES) | IC50 (BChE from equine serum) [nM] | IC50 [1] [nM] | IC50 [2] [µM] | cytotoxicity on HepG2 cells, in words (HepG2 cells) | antagonism of NMDAR activity, in words [2] | IC50 values (mean ± SD) BChE (BChE from equine serum) | inhibition at 100 µM [2] [%] | further results
1 | CCOC(=O)C1CCc2nc3cc(Br)ccc3c(N)c2C1 (stereo not shown) [Compound 5, Ethyl 9-amino-6-bromo-1,2,3,4-tetrahydroacridine-2-carboxylate] | 7380 ± 210 | 100 ± 7.2 | – | – | – | – | – | –
2 | NNC(=O)C1CCc2nc3cc(Br)ccc3c(N)c2C1 (stereo not shown) [Compound 8, 9-Amino-6-bromo-1,2,3,4-tetrahydroacridine-2-carbohydrazide] | 20400 ± 2110 | 138 ± 16.1 | – | – | – | – | – | –
3 | CCOC(=O)C1CCc2nc3cc(-c4cnn(C)c4)ccc3c(N)c2C1 (stereo not shown) [Compound 10, Ethyl-9-amino-6-(1-methyl-1H-pyrazol-4-yl)-1,2,3,4-tetrahydroacridine-2-carboxylate] | 4390 ± 280 | 107 ± 8.7 | 31.1 ± 4.8 | – | – | – | – | –
4 | CNC(=O)C1CCc2nc3cc(-c4cnn(C)c4)ccc3c(N)c2C1 (stereo not shown) [Compound 14, 9-amino-N-methyl-6-(1-methyl-1H-pyrazol-4-yl)-1,2,3,4-tetrahydroacridine-2-carboxamide] | 16400 ± 540 | 132 ± 7.7 | 33.9 ± 8.41 | non-toxic | – | – | – | condensed nuclei / viable cells (DAPI staining) after glutamate [3]: clear decrease in the number of condensed nuclei; decrease in MAP2 positive cells and loss of neuronal architecture caused by glutamate [3]: prevented; category of NMDAR inhibitor [2]: reduced
5 | CCOC(=O)C1CCc2nc3ccccc3c(N)c2C1 (stereo not shown) [Compound 16, ethyl 9-amino-1,2,3,4-tetrahydroacridine-2-carboxylate] | 3820 ± 250 | 42.2 ± 2.7 | – | – | could not effectively block NMDAR activity | – | – | –
6 | NNC(=O)C1CCc2nc3ccccc3c(N)c2C1 (stereo not shown) [Compound 17, 9-amino-1,2,3,4-tetrahydroacridine-2-carbohydrazide] | – | 19.3 ± 0.47 | – | – | could not effectively block NMDAR activity | – | – | –
7 | CCOC(=O)C1CCc2nc3cc(-c4ccc(F)cc4)ccc3c(N)c2C1 (stereo not shown) [Compound 107, ethyl 9-amino-6-(4-fluorophenyl)-1,2,3,4-tetrahydroacridine-2-carboxylate] | 1350 ± 90 | 135 ± 10.3 | 15.8 ± 3.44 | – | – | – | – | –
8 | Cn1cc(-c2ccc3c(N)c4c(nc3c2)CCCC4)cn1 [Compound 201, 6-(1-methyl-1H-pyrazol-4-yl)-1,2,3,4-tetrahydroacridin-9-amine] | 850 ± 10 | 40.9 ± 4.82 | 15.2 ± 6.14 | non-toxic | effective in antagonizing NMDAR activity | submicromolar | ~100 | escape latency in MWM, 5 days [4]: significantly reduced the escape latency; condensed nuclei / viable cells (DAPI staining) after glutamate [3]: clear decrease in the number of condensed nuclei; decrease in MAP2 positive cells and loss of neuronal architecture caused by glutamate [3]: prevented; liver histopathology (H&E), in words (rat liver): did not show any change in the liver architecture; reduction in neuronal viability by glutamate (MTT assay) [5]: averted; category of NMDAR inhibitor [2]: moderate (moderate (IC50 < 20 μM))
9 | Nc1c2c(nc3cc(-c4cncnc4)ccc13)CCCC2 [Compound 203, 6-(pyrimidin-5-yl)-1,2,3,4-tetrahydroacridin-9-amine] | 1500 ± 200 | 18.5 ± 2.09 | 28.1 ± 5.1 | slight toxicity | effective in antagonizing NMDAR activity | – | – | –
10 | Nc1c2c(nc3cc(-c4cc[nH]n4)ccc13)CCCC2 [Compound 204, 6-(1H-pyrazol-3-yl)-1,2,3,4-tetrahydroacridin-9-amine] | 960 ± 70 | 137 ± 7.35 | 14.6 ± 4.32 | non-toxic | effective in antagonizing NMDAR activity | submicromolar | ~100 | –
11 | N#Cc1ccc(-c2ccc3c(N)c4c(nc3c2)CCCC4)cc1 [Compound 205, 4-(9-amino-5,6,7,8-tetrahydroacridin-3-yl)benzonitrile] | 700 ± 80 | 84.2 ± 1.8 | 2.84 ± 0.46 | slight toxicity | effective in antagonizing NMDAR activity | submicromolar | ~100 | –
12 | Nc1c2c(nc3cc(-c4ccc(OC(F)(F)F)cc4)ccc13)CCCC2 [Compound 206, 6-(4-(trifluoromethoxy)phenyl)-1,2,3,4-tetrahydroacridin-9-amine] | 1210 ± 160 | 184 ± 19.2 | 9.19 ± 2.68 | – | effective in antagonizing NMDAR activity | – | ~100 | –
13 | Nc1c2c(nc3cc(-c4ccccc4F)ccc13)CCCC2 [Compound 208, 6-(2-fluorophenyl)-1,2,3,4-tetrahydroacridin-9-amine] | 130 ± 20 | 75.1 ± 9.46 | 0.31 ± 0.09 | – | effective in antagonizing NMDAR activity | submicromolar | ~100 | selectivity between AChE and BChE, in words ([1]; AChE from electric eel vs BChE from equine serum): comparable inhibitory potency towards both AChE and BChE; condensed nuclei / viable cells (DAPI staining) after glutamate [3]: clear decrease in the number of condensed nuclei; decrease in MAP2 positive cells and loss of neuronal architecture caused by glutamate [3]: prevented; animals showing mild periportal inflammation or congestion (rat liver): 5 out of 6 animals; liver histopathology (H&E), in words (rat liver): mild periportal inflammation or mild congestion; reduction in neuronal viability by glutamate (MTT assay) [5]: averted; fold higher NMDAR inhibitory potency compared to reported value for tacrine [2]: ~600 fold; number of punctate cells [2]: Reduction in the number of punctate cells; inhibition at 50 µM [2]: ~100%; category of NMDAR inhibitor [2]: potent (potent (IC50 < 5 μM))
14 | Nc1c2c(nc3cc(-c4ccc(F)cc4)ccc13)CCCC2 [Compound 209, 6-(4-fluorophenyl)-1,2,3,4-tetrahydroacridin-9-amine] | 1030 ± 170 | 76 ± 3.79 | 3.36 ± 0.86 | non-toxic | effective in antagonizing NMDAR activity | – | ~100 | fold increase in NMDAR potency compared to 107 [2]: About 4 fold; inhibition at 50 µM [2]: ~100%
15 | CSc1ccc(-c2ccc3c(N)c4c(nc3c2)CCCC4)cc1 [Compound 210, 6-(4-(methylthio)phenyl)-1,2,3,4-tetrahydroacridin-9-amine] | 940 ± 120 | 149 ± 16.8 | 0.27 ± 0.05 | – | effective in antagonizing NMDAR activity | submicromolar | ~100 | condensed nuclei / viable cells (DAPI staining) after glutamate [3]: clear decrease in the number of condensed nuclei; decrease in MAP2 positive cells and loss of neuronal architecture caused by glutamate [3]: prevented; reduction in neuronal viability by glutamate (MTT assay) [5]: averted; fold higher NMDAR inhibitory potency compared to reported value for tacrine [2]: ~600 fold; inhibition at 50 µM [2]: ~100%; category of NMDAR inhibitor [2]: potent (potent (IC50 < 5 μM))
16 | Nc1c2c(nc3cc(-c4ccc(C(F)(F)F)cc4)ccc13)CCCC2 [Compound 211, 6-(4-(trifluoromethyl)phenyl)-1,2,3,4-tetrahydroacridin-9-amine] | 3970 ± 710 | 74.6 ± 8.29 | 0.49 ± 0.14 | slight toxicity | effective in antagonizing NMDAR activity | – | ~100 | condensed nuclei / viable cells (DAPI staining) after glutamate [3]: clear decrease in the number of condensed nuclei; decrease in MAP2 positive cells and loss of neuronal architecture caused by glutamate [3]: prevented; number of punctate cells [2]: Reduction in the number of punctate cells; inhibition at 50 µM [2]: ~100%; category of NMDAR inhibitor [2]: potent (potent (IC50 < 5 μM))
17 | Nc1c2c(nc3cc(-c4ccoc4)ccc13)CCCC2 [Compound 212, 6-(furan-3-yl)-1,2,3,4-tetrahydroacridin-9-amine] | 990 ± 50 | 53.6 ± 4.39 | 16.4 ± 2.76 | non-toxic | effective in antagonizing NMDAR activity | submicromolar | – | –
18 | Nc1c2c(nc3cc(-c4cccnc4)ccc13)CCCC2 [Compound 214, 6-(pyridin-3-yl)-1,2,3,4-tetrahydroacridin-9-amine] | 820 ± 90 | 49.4 ± 2.37 | 38.8 ± 9.64 | non-toxic | effective in antagonizing NMDAR activity | submicromolar | – | –
19 | C[C@]12N[C@H](Cc3ccccc31)c1ccccc12 [MK-801, reference compound] | – | – | – | – | – | – | – | condensed nuclei / viable cells (DAPI staining) after glutamate [3]: prevented
22 | Nc1c2c(nc3ccccc13)CCCC2 [tacrine, reference compound] | – | – | – | – | – | – | – | concentration up to which safe on HepG2 cells (HepG2 cells): up to 50 µM; reduction in cell viability (HepG2 cells; HepG2, 300 µM): ~50%; IC50 (NMDAR): 193 ± 33 µM
